According to the supplement of paper PMC10331698:
± gives the standard deviation of the averaged measurements.

Key:
Assay in all cases: level (log10 ratio to DMSO vehicle control); higher = higher biomarker level / cell amount than vehicle control
Conditions in all cases: in DMSO
[1] = compound: C=CC(F)(F)C(F)(F)C(F)(F)C(F)(F)C(F)(F)C(F)(F)C(F)(F)C(F)(F)C=C [1,8-Divinylperfluorooctane]
Procedure: (§1)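 BioMAP Diversity Plus panel of 12 human primary cell co-culture systems (3C, 4H, LPS, SAg, BT, BF4T, BE3C, CASM3C, HDF3CGF, KF3CT, MyoF, Mphg). Compounds were added 1 h before stimulation and left for 24 h (MyoF 48 h; BT 72 h for soluble read-outs or 6 d for IgG). Biomarkers were read by ELISA, cytotoxicity by SRB, PBMC viability and proliferation by Alamar Blue. Each well value was divided by the mean of 8 DMSO control wells on the same plate and log10 transformed; duplicate blinded samples were tested at 4 concentrations.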

[2] = compound: COC(=O)CCC(F)(F)C(F)(F)C(F)(F)C(F)(F)F [Methyl 2H,2H,3H,3H-perfluoroheptanoate]
Procedure: as §1

[3] = compound: FC(F)(F)C(F)(F)C(F)(F)C(F)(F)C(F)(F)C(F)(F)C(F)(F)C(F)(F)CCS [2-(Perfluorooctyl)ethanthiol]
Procedure: as §1

Perfluoroheptanoic acid = compound: O=C(O)C(F)(F)C(F)(F)C(F)(F)C(F)(F)C(F)(F)C(F)(F)F [Perfluoroheptanoic acid]
Procedure: as §1

Perfluorobutanoic acid = compound: O=C(O)C(F)(F)C(F)(F)C(F)(F)F [Perfluorobutanoic acid]
Procedure: as §1

[4] = compound: O=C(O)C(F)(F)OC(F)(F)C(F)(F)OC(F)(F)C(=O)O [Perfluoro-3,6-dioxaoctane-1,8-dioic acid]
Procedure: as §1

[5] = compound: O=C(O)C(F)(F)OC(F)(F)C(F)(F)OC(F)(F)F [Perfluoro-3,6-dioxaheptanoic acid]
Procedure: as §1

| Test System | level (log10) ([1]; 6700 nM) | level (log10) ([1]; 20000 nM) | level (log10) ([2]; 6700 nM) | level (log10) ([2]; 20000 nM) | level (log10) ([2]; 60000 nM) | level (log10) ([3]; 6700 nM) | level (log10) ([3]; 20000 nM) | level (log10) (Perfluoroheptanoic acid; 6700 nM) | level (log10) (Perfluoroheptanoic acid; 20000 nM) | level (log10) (Perfluoroheptanoic acid; 60000 nM) | level (log10) (Perfluorobutanoic acid; 6700 nM) | level (log10) (Perfluorobutanoic acid; 20000 nM) | level (log10) (Perfluorobutanoic acid; 60000 nM) | level (log10) ([4]; 6700 nM) | level (log10) ([4]; 20000 nM) | level (log10) ([4]; 60000 nM) | level (log10) ([5]; 6700 nM) | level (log10) ([5]; 20000 nM) | level (log10) ([5]; 60000 nM) |
| --- | --- | --- | --- | --- | --- | --- | --- | --- | --- | --- | --- | --- | --- | --- | --- | --- | --- | --- | --- |
| 4H:SRB | 0.002 ± 0.0057 | 0.0125 ± 0.00071 | 0.0075 ± 0.022 | 0.006 ± 0.0057 | -0.017 ± 0.0099 | 0.0085 ± 0.011 | -0.003 ± 0.0057 | -0.0035 ± 0.005 | 0.0135 ± 0.026 | -0.024 ± 0.021 | -0.02 ± 0.044 | -0.0115 ± 0.0035 | -0.007 ± 0.024 | -0.0115 ± 0.0078 | -0.0115 ± 0.022 | -0.003 ± 0.027 | 0.009 ± 0.0042 | 0.0085 ± 0.0035 | 0 ± 0.0042 |
| LPS:sPGE2 | -0.005 ± 0.034 | -0.035 ± 0.075 | 0.014 ± 0.033 | 0.0395 ± 0.0078 | -0.0125 ± 0.04 | -0.017 ± 0.025 | -0.022 ± 0.011 | 0.0295 ± 0.005 | -0.0185 ± 0.022 | -0.0285 ± 0.059 | -0.0045 ± 0.012 | 0.0155 ± 0.025 | -0.0075 ± 0.0035 | -0.0045 ± 0.013 | -0.006 ± 0.011 | 0.0045 ± 0.0078 | -0.0065 ± 0.047 | -0.0395 ± 0.018 | -0.006 ± 0.021 |
| SAg:CD40 | 0.0085 ± 0.015 | -0.022 ± 0.0028 | -0.042 ± 0.04 | -0.0415 ± 0.04 | -0.053 ± 0.065 | 0.0105 ± 0.011 | 0.006 ± 0.011 | -0.015 ± 0.027 | -0.006 ± 0.0028 | -0.021 ± 0.018 | -0.0055 ± 0.026 | -0.014 ± 0.02 | -0.0015 ± 0.0092 | 0.015 ± 0.0028 | 0.01 ± 0.0057 | -0.008 ± 0.013 | -0.0425 ± 0.088 | -0.0475 ± 0.022 | -0.063 ± 0.093 |
| LPS:CD62E/E-Selectin | -0.0215 ± 0.029 | -0.023 ± 0.018 | -0.0315 ± 0.0021 | -0.034 ± 0.0014 | 0.0015 ± 0.013 | 0.0275 ± 0.025 | 0.013 ± 0.011 | -0.009 ± 0.0028 | 0 ± 0.017 | 0.01 | -0.012 ± 0.018 | -0.01 ± 0.013 | -0.0085 ± 0.005 | 0.019 ± 0.013 | -0.0035 ± 0.0092 | -0.003 ± 0.0028 | 0 ± 0.021 | -0.018 ± 0.05 | -0.006 ± 0.017 |
| BF4T:PAI-I | -0.01 ± 0.0057 | 0.0055 ± 0.0064 | 0.007 ± 0.025 | 0.0055 ± 0.012 | -0.007 ± 0.0028 | -0.0175 ± 0.0064 | -0.0255 ± 0.005 | -0.0045 ± 0.019 | 0.0005 ± 0.025 | 0.0015 ± 0.028 | -0.003 ± 0.0057 | -0.0115 ± 0.0064 | 0.0025 ± 0.023 | 0.0085 ± 0.013 | 0.007 ± 0.0099 | 0.0095 ± 0.012 | -0.0215 ± 0.019 | -0.018 ± 0.033 | -0.002 ± 0.011 |
| 4H:CD106/VCAM-1 | -0.012 ± 0.021 | 0.0035 ± 0.00071 | -0.021 ± 0.0071 | 0.01 ± 0.035 | 0.011 ± 0.013 | -0.0055 ± 0.005 | -0.0025 ± 0.012 | 0.0215 ± 0.035 | 0.0045 ± 0.049 | 0.007 ± 0.017 | -0.0165 ± 0.0092 | -0.021 ± 0.0042 | -0.001 ± 0.013 | 0.01 ± 0.023 | -0.0125 ± 0.0078 | -0.001 ± 0.0042 | -0.0245 ± 0.0092 | 0.001 ± 0.034 | -0.0215 ± 0.021 |
| 3C:SRB | 0.0135 ± 0.0021 | 0.027 ± 0.0042 | 0.0125 ± 0.036 | 0.0085 ± 0.028 | -0.004 ± 0.016 | 0.005 ± 0.0071 | -0.013 ± 0.016 | -0.0065 ± 0.0078 | 0.005 ± 0.0085 | -0.0255 ± 0.0035 | -0.021 ± 0.027 | -0.017 ± 0.013 | -0.0085 ± 0.0035 | 0.0055 ± 0.0064 | -0.0055 ± 0.016 | -0.004 ± 0.0014 | -0.01 ± 0.0071 | -0.022 ± 0.0057 | -0.008 ± 0.0042 |
| LPS:sTNF-alpha | 0.055 ± 0.016 | 0.035 ± 0.035 | 0.0245 ± 0.005 | -0.007 ± 0.011 | -0.025 ± 0.033 | 0.052 ± 0.013 | 0.098 ± 0.0071 | -0.0265 ± 0.054 | -0.049 ± 0.0071 | -0.0215 ± 0.046 | -0.0195 ± 0.012 | -0.0055 ± 0.0078 | -0.041 ± 0.034 | -0.012 ± 0.057 | 0.0145 ± 0.063 | 0.0445 ± 0.059 | -0.012 ± 0.027 | -0.0265 ± 0.023 | -0.0205 ± 0.005 |
| LPS:CD106/VCAM-1 | -0.0145 ± 0.0092 | -0.033 ± 0.0014 | -0.0265 ± 0.011 | -0.0265 ± 0.00071 | -0.0085 ± 0.021 | -0.007 ± 0.04 | -0.0225 ± 0.005 | -0.014 ± 0.021 | -0.0155 ± 0.025 | -0.013 ± 0.025 | -0.0095 ± 0.0021 | -0.0075 ± 0.0021 | -0.027 ± 0.033 | 0.011 ± 0.013 | -0.007 ± 0.0028 | -0.009 ± 0.021 | -0.0215 ± 0.023 | -0.007 ± 0.0085 | -0.0105 ± 0.005 |
| BE3C:CXCL8/IL-8 | 0.0025 ± 0.021 | 0.01 ± 0.02 | 0.032 ± 0.044 | 0.002 ± 0.057 | 0.0295 ± 0.053 | 0.04 ± 0.073 | 0.0135 ± 0.093 | 0.033 ± 0.041 | 0.008 ± 0.042 | 0.0205 ± 0.1 | 0.0155 ± 0.022 | 0.01 ± 0.014 | 0.0155 ± 0.005 | -0.0485 ± 0.0092 | -0.0355 ± 0.0078 | 0.007 ± 0.05 | -0.041 ± 0.033 | -0.007 ± 0.011 | -0.0155 ± 0.05 |
| BT:sIL-2 | 0.014 ± 0.035 | 0.022 ± 0.05 | 0.017 ± 0.018 | -0.042 ± 0.037 | 0.027 ± 0.12 | 0.017 ± 0.016 | -0.0155 ± 0.071 | -0.0105 ± 0.14 | 0.0035 ± 0.037 | -0.008 ± 0.075 | -0.011 ± 0.0028 | 0.0285 ± 0.066 | 0.0095 ± 0.042 | 0.004 ± 0.027 | -0.017 ± 0.05 | -0.002 ± 0.041 | 0.0035 ± 0.053 | 0.0105 ± 0.11 | 0.01 ± 0.072 |
| BE3C:CXCL9/MIG | -0.001 ± 0.0014 | -0.005 ± 0.0028 | -0.0025 ± 0.016 | -0.007 ± 0.0014 | -0.0095 ± 0.00071 | -0.0085 ± 0.011 | -0.001 ± 0.011 | 0 ± 0.0014 | 0.0065 ± 0.011 | 0.012 ± 0.017 | 0.002 ± 0.0071 | -0.004 ± 0.013 | -0.0005 ± 0.00071 | 0.0015 ± 0.0064 | -0.003 ± 0.0099 | 0.0015 ± 0.0021 | -0.016 ± 0.0014 | -0.003 ± 0.021 | 0.0025 ± 0.0035 |
| BF4T:CXCL8/IL-8 | 0.009 ± 0.03 | 0.0155 ± 0.013 | 0.018 ± 0.018 | 0.0065 ± 0.0078 | 0.013 ± 0.037 | 0.0625 ± 0.037 | 0.0505 ± 0.05 | 0.017 ± 0.028 | 0.0155 ± 0.013 | 0.0145 ± 0.036 | 0.0005 ± 0.012 | 0.004 ± 0.0014 | 0.0095 ± 0.033 | -0.011 ± 0.023 | -0.0305 ± 0.0064 | -0.0025 ± 0.037 | 0.044 ± 0.034 | 0.0475 ± 0.015 | 0.073 ± 0.045 |
